Measurements reported in patent US8993595B2, “Macrocyclic serine protease inhibitors” (priority 2009, dated 2015).

Assays:
NS3-4A (Con1) = NS3-4A (Con1) (Hepatitis C virus genotype 1b, UniProt Q9WMX2); assay: Binding kinetics by surface plasmon resonance; set-up: species or system HCV
Procedure: The binding kinetics of compound 52 to NS3-4A (Con1) was also determined using surface plasmon resonance.

[1] = MTS Cytotoxicity Assay in HPC cells; assay type: cell-based; details: human; HPC cells (2a virus line)
Procedure: HPC cells were infected with JFH-1 (genotype 2a) and treated with the compound for 4 days (virus inoculum was removed after 16 hrs). Remaining virus was measured by an anti-HCV core ELISA. Compound cytotoxicity was also measured in parallel using a colorimetric proliferation assay as described in Example 5.
The cytotoxicity assay measures the viability of cells after treatment with a test compound for 5 days. The assay readout is the bioreduction of the yellow MTS tetrazolium compound to a purple formazan product. This conversion is mediated by NADPH or NADH and is directly proportional to the number of live cells in a culture.
Ninety-six-well Corning Costar plates were seeded with HPC cells at a density of 3.0×10^3 cells per well in 50 μL of Huh-7 media. Compound stock solutions were made up freshly in Huh-7 media as 2× stocks. Seven additional 3-fold drug dilutions were prepared from the 2× stocks in Huh-7 media for a total of 8 dilutions.
At least 4 hours after HPC cells were seeded, 50 μL of each drug dilution was added to the cultures. […]
After 5 days of treatment, the CellTiter 96® Aqueous One Solution cell proliferation assay was performed by adding 20 μL of MTS solution to each well. […] Plates were read at A490 nm in a Victor^3 V 1420 multilabel counter (Perkin Elmer) and CC50 concentrations were determined using Microsoft Excel and XLfit 4.1 software. […]

mice = details: mouse, in vivo
Procedure: (§1) Daily oral doses of compound 52 (up to 250 mg/kg/day) in PEG 400 were administered to both mice and monkeys for 28 consecutive days. Toxicity was evaluated based on mortality, clinical observations, body weights, food consumption, ophthalmological examination, hematology and serum chemistry, organ weights, gross and microscopic examinations. ECG, coagulation and urinalysis were also performed in the monkey study.

monkeys = details: oral doses up to 250 mg/kg
Procedure: as §1

[2] = tested on: C-1a cell line (genotype 1a replicon selected with 25 nM, D168A); assay: Extent of resistance after selection, C-1a; assay type: cell-based, HCV; details: selecting conc. 25 nM
Procedure: Replicon cells (genotype 1a or 1b) were treated with various concentrations of compound 52 in the presence of G418. Treatment-emergent genotypic changes were identified by population sequencing of NS3 (both protease and helicase regions). The activity of compound 52 and other compounds was evaluated by NS5A western blot after selection or luciferase assay during and after selection.

[3] = Cytotoxicity in parallel, colorimetric proliferation assay, 1a replicon cells; assay type: cell-based; details: human, replicon cells (genotype 1a)
[4] = Pharmacokinetics in human volunteers, single dose cohorts
human CYP450 1A2 = target: T1, human CYP450 1A2 (Homo sapiens, UniProt P05177); assay: CYP450 inhibition assay, 1A2; assay type: in vitro ADME
T1 construct: purchased BD Bioscience
Procedure: Compound 52 was incubated with human CYP450 cDNA-expressed isoenzymes according to the protocol (BD Bioscience). For CYP2C9, a luminogenic substrate was used with the P450-Glo™ kit. In addition, the effect of the compound on CYP2C9-mediated diclofenac metabolism was measured by LC-UV. The potential inhibitory effect of the compound on human UGT1A1 was examined using human liver microsomes and bilirubin as substrate. The metabolites (mono- and di-glucuronidated bilirubin) were measured by LC-UV.

clinical [5] = details: human, in vivo; for AUC(0-inf): AUC0-∞
clinical [6] = details: human, in vivo; for Cmax / Tmax: 400 mg per day; for half-life: T1/2, 400 mg per day
[7] = Cytotoxicity in parallel, colorimetric proliferation assay, 1b replicon cells; assay type: cell-based; details: human, replicon cells (genotype 1b)
HCV NS3-NS4A protease = target: T2, HCV NS3-NS4A protease (Hepatitis C virus genotype 1a, UniProt P27958); assay: HCV Protease Assay (SensoLyte 620 HCV Protease Assay kit); assay type: biochemical; details: 1.2 nM HCV NS3-NS4A protease, 60 min, room temperature
T2 construct: HCV NS3-NS4A protease, which was obtained according to Taremi et al; made in house
Procedure: Measurement of the inhibitory effect of compounds on HCV protease activity was performed with the SensoLyte™ 620 HCV Protease Assay kit from AnaSpec, Inc. (San Jose, Calif.) under conditions described by the supplier using 1.2 nM HCV NS3-NS4A protease, which was obtained according to Taremi et al. (Protein Science, 1998, 7, 2143-2149). The compounds were tested at a variety of concentrations in assay buffer containing a final DMSO concentration of 5%. Reactions were allowed to proceed for 60 min at room temperature and fluorescence measurements were recorded with a Tecan Infinity Spectrofluorimeter. The IC50 values were determined from the percent inhibition versus concentration data using a sigmoidal non-linear regression analysis based on four parameters with Tecan Magellan software.

[8] = 50 mg, single dose 50 mg, human volunteers
[9] = 100 mg, single dose 100 mg, human volunteers
[10] = 200 mg, single dose 200 mg, HCV patients, N = 2
[11] = 200 mg, single dose 200 mg, human volunteers
[12] = 400 mg, single dose 400 mg Fasted, human volunteers
[13] = 400 mg, single dose 400 mg, human volunteers

## COc1ccc2c(O[C@H]3CCN4C(=O)N(C)CCCC/C=C\[C@@H]5C[C@@]5(C(=O)NS(=O)(=O)C5(C)CC5)NC(=O)[C@@H]4C3)cc(-c3nc(C(F)(F)F)cs3)nc2c1C [Compound 52, 1-methyl-cyclopropanesulfonic acid{(Z)-(1S,4R,6S,18S)-18-[7-methoxy-8-methyl-2-(4-trifluoromethyl-thiazol-2-yl)-quinolin-4-yloxy]-13-methyl-2,14-dioxo-3,13,15-triaza-tricyclo[13.4.0.0*4,6*]nonadec-7-ene-4-carbonyl}amide]
NS3-4A (Con1); read-out: association rate
  kon: 27000 M⁻¹ s⁻¹
NS3-4A (Con1); read-out: dissociation rate
  koff: 2.1e-05 s⁻¹
NS3-4A (Con1); read-out: equilibrium constant
  Kd: 0.0008 µM
[1]
  CC50 at 5 days: 11.3 ± 0.1 µM
mice
  tolerability in 4-week GLP toxicology study: well tolerated
monkeys
  tolerability in 4-week GLP toxicology study: well tolerated
[2]
  Fold-Change: 900 ± 64
[3]
  CC50 at 5 days: > 77 µM
[4]; 2 HCV-infected patients, comparable Cmax
  total and trough exposure, HCV-infected patients compared to healthy volunteers: 2 fold
[4]; food compared to fasting state
  enhancement of overall plasma exposure by food: approximately 2 fold
[4]; single dose 100 mg, human volunteers
  C24 hr: 19 ± 9 ng/mL
[4]; single dose 200 mg, HCV patients, N = 2
  C24 hr: 131 ng/mL
[4]; single dose 200 mg, human volunteers
  C24 hr: 53 ± 26 ng/mL
[4]; single dose 400 mg Fasted, human volunteers
  C24 hr: 54 ± 28 ng/mL
[4]; single dose 400 mg, human volunteers
  C24 hr: 89 ± 16 ng/mL
Human CYP450 1A2
  IC50: ≥ 10 µM
Clinical [5]; [8]
  AUC(0-inf): 2020 ± 744 ng·h/mL
  Cmax: 346 ± 87 ng/mL
  Tmax: 3 h
Clinical [5]; 50 mg, T1/2, single dose 50 mg, human volunteers
  half-life: 13 ± 6 h
Clinical [5]; [9]
  AUC(0-inf): 3540 ± 1010 ng·h/mL
  Cmax: 467 ± 72 ng/mL
  Tmax: 3 h
Clinical [5]; 100 mg, T1/2, single dose 100 mg, human volunteers
  half-life: 24 ± 7 h
Clinical [5]; [10]
  AUC(0-inf): 13900 ng·h/mL
  Cmax: 1060 ng/mL
  Tmax: 3.5 h
Clinical [5]; [11]
  AUC(0-inf): 7240 ± 2930 ng·h/mL
  Cmax: 982 ± 463 ng/mL
  Tmax: 3 h
Clinical [5]; 200 mg, T1/2, single dose 200 mg, HCV patients, N = 2
  half-life: 32 h
Clinical [5]; 200 mg, T1/2, single dose 200 mg, human volunteers
  half-life: 26 ± 7 h
Clinical [5]; 400 mg
  AUC(0-inf): 9460 ± 2330 ng·h/mL
Clinical [5]; [12]
  AUC(0-inf): 4190 ± 1590 ng·h/mL
  Cmax: 368 ± 89 ng/mL
  Tmax: 3 h
Clinical [5]; [13]
  Cmax: 1120 ± 505 ng/mL
  Tmax: 3 h
Clinical [5]; 400 mg, T1/2, single dose 400 mg Fasted, human volunteers
  half-life: 15 ± 8 h
Clinical [5]; 400 mg, T1/2, single dose 400 mg, human volunteers
  half-life: 25 ± 7 h
Clinical [6]; PK Day 1
  Cmax: 1150 ± 381 ng/mL
  half-life: 12 ± 2 h
  Tmax: 3 h
Clinical [6]; PK Day 3
  Cmax: 1370 ± 345 ng/mL
  half-life: 31 ± 8 h
  Tmax: 3.5 h
[7]
  CC50 at 5 days: 25.2 ± 5.3 µM
HCV NS3-NS4A protease
  IC50: < 1 µM
